How the values were obtained:
MCF7 breast cancer cells = test: Cell proliferation assay (alamarBlue), MCF7; format: cell-based; details: Homo sapiens, 72 h incubation, GI50 = half-maximal growth inhibition
Experimental: (§1) The effect of ATAD2 inhibitory compounds on cancer cell proliferation might be measured as below. For example; MCF7 breast cancer cells might be seeded into 96-well microtiter plates at 2000 cells/well in 90 μl cell culture media (RPMI 1640, 10% FCS, 2 mM L-Glutamine, 10 μg/ml human Insulin, […]) and incubated for 24 h at 37° C. and 5% CO2. Note, the culturing conditions might vary from cell line to cell line depending on their standard culturing conditions. Compounds might be then delivered to the microtiter assay plates and, following a 72 h long incubation period at 37° C. and 5% CO2, the viability of the cells might be measured with addition of alamarBlue® (Invitrogen) to the medium in Victor X3 Multilabel Plate Reader (Perkin Elmer).
(§2) GI50 means half-maximal growth inhibition.

NCl-H526 lung cancer = test: Cell proliferation assay (alamarBlue), NCl-H526; format: cell-based; details: GI50 = half-maximal growth inhibition
Experimental: as §1, §2

[1] = biological target: T1, recombinant, N-terminally GST-tagged ATAD2 bromodomain amino acids 981-1108 (Homo sapiens, UniProt Q6PL18); test: TR-FRET assay: disruption of the interaction between ATAD2 and acetylated Histone H4 (Ac-H4) peptide; format: binding; details: inhibition of ATAD2/Ac-H4 complex formation; 10 nM ATAD2, 50 nM Ac-H4 peptide
T1 construct: ATAD2 bromodomain amino acids 981-1108; made in house; host or cells: E. coli
T1 sequence (Q6PL18 981-1108): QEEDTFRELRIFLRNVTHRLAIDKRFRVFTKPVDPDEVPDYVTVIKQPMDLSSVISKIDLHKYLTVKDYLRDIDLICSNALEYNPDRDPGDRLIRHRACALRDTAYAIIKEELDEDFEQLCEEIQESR
How it was run: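 Read-out is the 665/622 nm TR-FRET ratio after 337 nm excitation, normalized to DMSO and no-protein controls, with IC50 fitted by 4-parameter logistic. Compounds (11 concentrations, 0.1 nM-20 μM) pre-equilibrated 10 min with 10 nM ATAD2, then 1 h at 22 °C with 50 nM Ac-H4 peptide.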

GI50 (MCF7 breast cancer cells) [µM]	GI50 (NCl-H526 lung cancer) [µM]	IC50 [1] [µM]	SMILES
10.4	10.2	0.301	COc1cc(Cl)c(C(=O)N[C@@H](CO)Cc2ccc(C#N)cc2)cc1-c1ccc(CN[C@H](C)c2ccc(C)cc2)o1 [Example 81, 2-chloro-N-[(2R)-1-(4-cyanophenyl)-3-hydroxypropan-2-yl]-4-methoxy-5-[5-({[(1R)-1-(4-methylphenyl)ethyl]amino}methyl)-2-furyl]benzamide]
3.2	2.4	0.166	COc1cc(Cl)c(C(=O)N[C@@H](CN[C@H]2CC[C@@H](N)CC2)Cc2ccc(C#N)cc2)cc1-c1ccc(CN[C@H](C)c2ccc(C)cc2)o1 [Example 86, N-[(2R)-1-[(4-aminocyclohexyl)amino]-3-(4-cyanophenyl)propan-2-yl]-2-chloro-4-methoxy-5-[5-({[(1R)-1-(4-methylphenyl)ethyl]amino}methyl)-2-furyl]benzamide]
10.8	19.1	0.367	Cc1ccc([C@@H](C)NCc2ccc(-c3cc(C(=O)N[C@@H](CO)Cc4ccc(C#N)cc4)c(Cl)cc3O)o2)cc1 [Example 90, 2-chloro-N-[(2R)-1-(4-cyanophenyl)-3-hydroxypropan-2-yl]-4-hydroxy-5-[5-({[(1R)-1-(4-methylphenyl)ethyl]amino}methyl)-2-furyl]benzamide]

Reference: patent publication US10654818B2, “Furane derivatives as inhibitors of ATAD2” (BAYER PHARMA AKTIENGESELLSCHAFT, priority 2015, dated 2020)
